The record followed here is the supplement of paper PMC11061612.

Holding throughout (assay): combination Emax (second highest fraction inhibited in the dose matrix, 72 h); higher = more inhibition; extreme values may be limits of the assay
Experiment [1] deals with LCLC-103H (Non-Small Cell Lung Carcinoma). The method, boiled down: (§1)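 Bliss excess equals the observed combination effect minus the expected value EA + EB − EA·EB, where EA and EB are the effects of each agent alone. Combination Emax is the second-highest inhibition within the matrix. Inhibition was scaled from CellTiter-Glo 2.0 luminescence, with 0 set by vehicle wells and 1 by blank wells, after 72 hours of two-drug dosing of cells plated in 1536-well plates.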

The test system of experiment [2] is NCI-H2373 (Mesothelioma). The method, boiled down:
as §1

Experiment [3] has as its system NCI-H1876 (Small Cell Lung Carcinoma). The method, boiled down: as §1
Experiment [4] has as its system IST-MEL1 (Melanoma). A digest of the protocol: as §1
Experiment [5] relates to ES6 (Ewing's Sarcoma). A digest of the protocol:
as §1

The test system of experiment [6] is NCI-H1341 (Small Cell Lung Carcinoma). The method, boiled down: as §1
Experiment [7] has as its system P30-OHK (B-Lymphoblastic Leukemia). A digest of the protocol:
as §1

In experiment [8] the test system is SKG-IIIa (Cervical Carcinoma). The method, boiled down:
as §1

Experiment [9] has as its system SiHa (Cervical Carcinoma). A digest of the protocol:
as §1

Experiment [10] concerns AM-38 (Glioblastoma). A digest of the protocol: as §1
Experiment [11] has as its system LS-1034 (Colorectal Carcinoma). A digest of the protocol:
as §1

In experiment [12] the test system is SAT (Head and Neck Carcinoma). A digest of the protocol:
as §1

The test system of experiment [13] is NCI-H596 (Other Solid Carcinomas). A digest of the protocol: as §1
Experiment [14] relates to COR-L88 (Small Cell Lung Carcinoma). The method, boiled down: as §1
Experiment [15] concerns C-33-A (Cervical Carcinoma). A digest of the protocol:
as §1

The test system of experiment [16] is GAK (Melanoma). A digest of the protocol:
as §1

The test system of experiment [17] is CL-11 (Colorectal Carcinoma). A digest of the protocol: as §1
In experiment [18] the test system is SUP-M2 (T-Cell Non-Hodgkin's Lymphoma). The method, boiled down: as §1
The test system of experiment [19] is RCC-JW (Kidney Carcinoma). The method, boiled down: as §1
In experiment [20] the test system is IA-LM (Non-Small Cell Lung Carcinoma). The method, boiled down: as §1

As for `CCc1c2c(nc3ccc(O)cc13)-c1cc3c(c(=O)n1C2)COC(=O)[C@]3(O)CC` [SN-38] + CN(C)CCCOc1ccc(-c2ccc3ncc4c(c3c2)n(C2CCOCC2)c(=O)n4C)cn1 [AZD0156] (first compound max 0.3 µM, 7x7, partner max 1 µM), the “combination Emax” value in experiment [1] came to 0.486; in experiment [2] it was 0.726; in [3], 1; in experiment [4] it was 0.864; in [5] it was 0.603; in experiment [6], 0.955. In addition, the “combination Emax” value came out at 0.973 in [7]; 0.42 in experiment [8]; 0.235 in experiment [9]; 0.917 in [10]; 0.814 in experiment [11]; 0.344 in experiment [12]. In addition, the “combination Emax” value in experiment [13] was 0.348; in [14], 0.472; in experiment [15], 0.802; in [16] it was 0.477; in [17] it was 0.764; in [18] it was 1. For the same molecule, the “combination Emax” value in experiment [19] amounted to 0.656; in experiment [20], 0.882.
Regarding `C[C@@H](c1ccc2nccn2c1)n1nnc2ncc(-c3cnn(C)c3)nc21` [Savolitinib] + CC1(C)CCC(CN2CCN(c3ccc(C(=O)NS(=O)(=O)c4ccc(NCC5CCOCC5)c([N+](=O)[O-])c4)c(Oc4cnc5[nH]ccc5c4)c3)CC2)=C(c2ccc(Cl)cc2)C1 [Venetoclax] (first compound max 1 µM, 7x7, partner max 1 µM), the “combination Emax” value is 0.146 in experiment [1]; 0.138 in [2]; 0.0954 in experiment [3]; 0.124 in experiment [4]; 0.179 in experiment [5]; 0.392 in experiment [6]. Also, the “combination Emax” value was found to be 0.163 in experiment [7]; 0.12 in experiment [8]; 0.137 in experiment [9]; 0.0558 in experiment [10]; 0.0816 in experiment [11]; 0.151 in [12]. For the same molecule, the “combination Emax” value in experiment [13] came out at 0.229; in [14], 0.207; in experiment [15] it was 0.0882; in [16], 0.199; in experiment [17], 0.09; in experiment [18] it was 0.182. In addition, the “combination Emax” value was found to be 0.124 in experiment [19] and 0.197 in experiment [20].
For the molecule `C[C@@H](c1ccc2nccn2c1)n1nnc2ncc(-c3cnn(C)c3)nc21` [Savolitinib] + Cc1c2c(nn1C)CSCc1cc(n(C)n1)CSc1cc(c3ccccc3c1)OCCCc1c(C(=O)O)n(C)c3c-2c(Cl)ccc13 [AZD5991] (first compound max 1 µM, 7x7, partner max 1 µM), the “combination Emax” value in [1] is 0.211; in experiment [2] it was 0.133; in [3], 0.32; in [4] it was 0.104; in experiment [5] it was 0.174; in experiment [6] it was 0.488. The “combination Emax” value came to 0.683 in experiment [7]; 0.176 in experiment [8]; 0.167 in experiment [9]; 0.244 in experiment [10]; 0.128 in [11]; 0.427 in [12]. Further, the “combination Emax” value in [13] was found to be 0.197; in [14], 0.23; in experiment [15], 0.114; in [16], 0.264; in [17], 0.132; in experiment [18], 1. Moreover, the “combination Emax” value in experiment [19] was 0.106; in experiment [20], 0.268.
Take `Cn1cnc2c(F)c(Nc3ccc(Br)cc3Cl)c(C(=O)NOCCO)cc21` [Selumetinib] + C=CCn1c(=O)c2cnc(Nc3ccc(N4CCN(C)CC4)cc3)nc2n1-c1cccc(C(C)(C)O)n1 [AZD1775] (first compound max 10 µM, partner max 1 µM): the “combination Emax” value in experiment [1] worked out at 0.43; in experiment [2] it was 0.342; in [3], 0.982; in experiment [4], 0.527; in experiment [5], 0.233; in experiment [6], 0.697. The “combination Emax” value in experiment [7] came to 0.675; in experiment [8], 0.303; in experiment [9], 0.22; in [10], 0.563; in experiment [11] it was 0.747; in experiment [12] it was 0.637. Further, the “combination Emax” value in [13] is 0.223; in experiment [14] it was 0.666; in experiment [15], 0.93; in [16], 0.719; in experiment [17], 0.855; in [18], 0.996. Besides, the “combination Emax” value was 0.16 in experiment [19] and 0.296 in [20].
Regarding `Cn1cnc2c(F)c(Nc3ccc(Br)cc3Cl)c(C(=O)NOCCO)cc21` [Selumetinib] + CC(C)n1c(=O)n(C)c2cnc3cc(F)c(-c4ccc(OCCCN5CCCCC5)nc4)cc3c21 [AZD1390] (first compound max 10 µM, 7x7, partner max 0.3 µM), the “combination Emax” value in experiment [1] was determined as 0.138; in experiment [2] it was 0.298; in experiment [3], 0.272; in [4], 0.289; in experiment [5] it was 0.147; in experiment [6] it was 0.163. The “combination Emax” value in experiment [7] worked out at 0.217; in experiment [8], 0.2; in experiment [9], 0.156; in experiment [10], 0.437; in experiment [11], 0.689; in experiment [12], 0.47. Also, the “combination Emax” value was found to be 0.21 in experiment [13]; 0.198 in experiment [14]; 0.264 in experiment [15]; 0.626 in [16]; 0.691 in experiment [17]; 0.168 in [18]. Also, the “combination Emax” value came out at 0.0923 in experiment [19] and 0.244 in experiment [20].
As for `Cn1cnc2c(F)c(Nc3ccc(Br)cc3Cl)c(C(=O)NOCCO)cc21` [Selumetinib] + CCN(CCO)CCCOc1ccc2c(Nc3cc(CC(=O)Nc4cccc(F)c4)[nH]n3)ncnc2c1 [AZD2811] (first compound max 10 µM, 7x7, partner max 1 µM), the “combination Emax” value in experiment [1] is 0.376; in experiment [2], 0.284; in experiment [3], 0.792; in [4] it was 0.361; in [5], 0.15; in [6], 0.271. The “combination Emax” value in experiment [7] turned out to be 0.835; in experiment [8] it was 0.321; in experiment [9] it was 0.22; in experiment [10], 0.542; in [11] it was 0.671; in experiment [12], 0.604. The “combination Emax” value was 0.23 in [13]; 0.257 in experiment [14]; 0.324 in experiment [15]; 0.629 in [16]; 0.709 in experiment [17]; 0.998 in experiment [18]. The “combination Emax” value was 0.132 in experiment [19] and 0.28 in experiment [20].
